Measurements: US20150246902A1, “SUBSTITUED BENZOFURAN COMPOUNDS AND METHODS OF USE THEREOF FOR THE TREATMENT OF VIRAL DISEASES” (priority 2011, published 2015)

How the values were obtained:
HCV replicon genotype 1a = assay: microbe, parasite or virus in culture; type: cell-based; details: Hepatitis C virus, 96 h, HCV genotype 1a replicon cells, 96 hours incubation, NS3/4A ELISA readout
HCV replicon genotype 1b = assay: microbe, parasite or virus in culture; type: cell-based; details: Hepatitis C virus, 96 h, HCV genotype 1b replicon cells, 96 hours incubation, NS3/4A ELISA readout

| SMILES | IC50 (HCV replicon genotype 1a) | IC50 (HCV replicon genotype 1b) |
| --- | --- | --- |
| CNC(=O)c1c(-c2ccc(F)cc2)oc2cc(N(C)S(C)(=O)=O)c(-c3ccc4ncn(-c5ccc(OC)cc5)c4c3)cc12 [Compound 1, 2-(4-fluorophenyl)-5-(1-(4-methoxyphenyl)-1H-benzo[d]imidazol-6-yl)-N-methyl-6-(N-methylmethylsulfonamido)benzofuran-3-carboxamide] | 16.5 nM | 4.6 nM |
| CNC(=O)c1c(-c2ccc(F)cc2)oc2cc(N(C)S(C)(=O)=O)c(-c3ccc4ncn(-c5ccccc5)c4c3)cc12 [Compound 2] | 13.2 nM | 2.5 nM |
| CNC(=O)c1c(-c2ccc(F)cc2)oc2cc(N(C)S(C)(=O)=O)c(-c3ccc4ncn(-c5ccccc5F)c4c3)cc12 [Compound 3] | 68 nM | 5.8 nM |
| CNC(=O)c1c(-c2ccc(F)cc2)oc2cc(N(C)S(C)(=O)=O)c(-c3ccc4ncn(-c5cccc(OC)c5)c4c3)cc12 [Compound 4] | 26.5 nM | 2.5 nM |
| CNC(=O)c1c(-c2ccc(F)cc2)oc2cc(N(C)S(C)(=O)=O)c(-c3ccc4ncn(-c5ccc(C#N)cc5)c4c3)cc12 [Compound 5] | 2.1 nM | 0.8 nM |
| CNC(=O)c1c(-c2ccc(F)cc2)oc2cc(N(C)S(C)(=O)=O)c(-c3ccc4ncn(-c5cccc(C#N)c5)c4c3)cc12 [Compound 6] | 10.6 nM | 1.2 nM |
| CNC(=O)c1c(-c2ccc(F)cc2)oc2cc(N(C)S(C)(=O)=O)c(-c3ccc4ncn(-c5ccc(C(F)(F)F)cc5)c4c3)cc12 [Compound 7] | 2.6 nM | 2.2 nM |
| CNC(=O)c1c(-c2ccc(F)cc2)oc2cc(N(C)S(C)(=O)=O)c(-c3ccc4ncn(-c5cccc(C(F)(F)F)c5)c4c3)cc12 [Compound 8] | 27.7 nM | 3.9 nM |
| CNC(=O)c1c(-c2ccc(F)cc2)oc2cc(N(C)S(C)(=O)=O)c(-c3ccc4ncn(-c5ccccc5C(F)(F)F)c4c3)cc12 [Compound 9] | 75.8 nM | 7.1 nM |
| CNC(=O)c1c(-c2ccc(F)cc2)oc2cc(N(C)S(C)(=O)=O)c(-c3ccc4ncn(-c5ccc(Cl)cc5)c4c3)cc12 [Compound 10] | 4 nM | 3.6 nM |
| CNC(=O)c1c(-c2ccc(F)cc2)oc2cc(N(C)S(C)(=O)=O)c(-c3ccc4ncn(-c5ccccc5Cl)c4c3)cc12 [Compound 11] | 38.9 nM | 3.5 nM |
| CNC(=O)c1c(-c2ccc(F)cc2)oc2cc(N(C)S(C)(=O)=O)c(-c3ccc4ncn(-c5cccc(Cl)c5)c4c3)cc12 [Compound 12] | 11.7 nM | 2.6 nM |
| CNC(=O)c1c(-c2ccc(F)cc2)oc2cc(N(C)S(C)(=O)=O)c(-c3ccc4ncn(-c5ccc(S(C)(=O)=O)cc5)c4c3)cc12 [Compound 13] | 18.2 nM | 3.8 nM |
| CNC(=O)c1c(-c2ccc(F)cc2)oc2cc(N(C)S(C)(=O)=O)c(-c3ccc4ncn(-c5cccc(F)c5)c4c3)cc12 [Compound 14] | 2.7 nM | 1.2 nM |
| CNC(=O)c1c(-c2ccc(F)cc2)oc2cc(N(C)S(C)(=O)=O)c(-c3ccc4ncn(-c5ccc(F)cc5)c4c3)cc12 [Compound 15] | 5.5 nM | 1.2 nM |
| CNC(=O)c1c(-c2ccc(F)cc2)oc2cc(N(C)S(C)(=O)=O)c(-c3ccc4ncn(-c5cccnc5)c4c3)cc12 [Compound 16] | 37.2 nM | 4.6 nM |
| CNC(=O)c1c(-c2ccc(F)cc2)oc2cc(N(C)S(C)(=O)=O)c(-c3ccc4ncn(-c5ccc(OC(F)(F)F)cc5)c4c3)cc12 [Compound 17] | 37.6 nM | 12.8 nM |
| CNC(=O)c1c(-c2ccc(F)cc2)oc2cc(N(C)S(C)(=O)=O)c(-c3ccc4nc(C)n(-c5ccccc5)c4c3)cc12 [Compound 18] | 16.6 nM | 2.1 nM |
| CNC(=O)c1c(-c2ccc(F)cc2)oc2cc(N(C)S(C)(=O)=O)c(-c3ccc4nc(C)n(-c5ccc(F)cc5)c4c3)cc12 [Compound 19] | 12.8 nM | 2.2 nM |
| CNC(=O)c1c(-c2ccc(F)cc2)oc2cc(N(C)S(C)(=O)=O)c(-c3cc(F)c4ncn(-c5ccccc5)c4c3)cc12 [Compound 20] | 6.1 nM | 2.4 nM |
| CNC(=O)c1c(-c2ccc(F)cc2)oc2cc(N(C)S(C)(=O)=O)c(-c3ccc4c(c3)ncn4-c3cccnc3)cc12 [Compound 22] | 14.4 nM | 3.3 nM |
| CNC(=O)c1c(-c2ccc(F)cc2)oc2cc(N(C)S(C)(=O)=O)c(-c3ccc4ncn(C5CCN(C(=O)OC(C)(C)C)CC5)c4c3)cc12 [Compound 23] | 36.7 nM | 8.2 nM |
| CNC(=O)c1c(-c2ccc(F)cc2)oc2cc(N(C)S(C)(=O)=O)c(-c3ccc4ncn(C5CCCN(C(=O)OC(C)(C)C)C5)c4c3)cc12 (stereo not drawn) [Compound 24] | 760 nM | 82.6 nM |
| CNC(=O)c1c(-c2ccc(F)cc2)oc2cc(N(C)S(C)(=O)=O)c(-c3ccc4ncn(C5CCCNC5)c4c3)cc12 (stereo not drawn) [Compound 25] | 585 nM | 51.1 nM |

| SMILES | IC50 (HCV replicon genotype 1a) | IC50 (HCV replicon genotype 1b) |
| --- | --- | --- |
| CNC(=O)c1c(-c2ccc(F)cc2)oc2cc(N(C)S(C)(=O)=O)c(-c3ccc4ncn(C5CCOCC5)c4c3)cc12 [Compound 26] | 64.7 nM | 12 nM |
| CNC(=O)c1c(-c2ccc(F)cc2)oc2cc(N(C)S(C)(=O)=O)c(-c3cc(F)c4ncn(-c5ccc(F)cc5)c4c3)cc12 [Compound 28] | 4.2 nM | 3.3 nM |
| CNC(=O)c1c(-c2ccc(F)cc2)oc2cc(N(C)S(C)(=O)=O)c(-c3cc(F)c4ncn(-c5ccc(F)c(F)c5)c4c3)cc12 [Compound 29] | 5 nM | 3.3 nM |
| CNC(=O)c1c(-c2ccc(F)cc2)oc2cc(N(C)S(C)(=O)=O)c(-c3cc(F)c4ncn(-c5cc(F)cc(F)c5)c4c3)cc12 [Compound 30] | 6.3 nM | 2.8 nM |
| CNC(=O)c1c(-c2ccc(F)cc2)oc2cc(N(C)S(C)(=O)=O)c(-c3cc(F)c4ncn(-c5cc(F)c(F)c(F)c5)c4c3)cc12 [Compound 31] | 3.4 nM | 3.1 nM |
| CNC(=O)c1c(-c2ccc(F)cc2)oc2cc(N(C)S(C)(=O)=O)c(-c3cc(F)c4nc(C)n(-c5ccc(F)c(C#N)c5)c4c3)cc12 [Compound 32] | 5.3 nM | 3.1 nM |
| CNC(=O)c1c(-c2ccc(F)cc2)oc2cc(N(C)S(C)(=O)=O)c(-c3cc(OC)c4nc(C)n(-c5ccc(F)cc5)c4c3)cc12 [Compound 33] | 13.7 nM | 8.8 nM |
| CNC(=O)c1c(-c2ccc(F)cc2)oc2cc(N(C)S(C)(=O)=O)c(-c3cc(F)c4nc(C)n(-c5cc(F)cc(F)c5)c4c3)cc12 [Compound 34] | 24.8 nM | 4.3 nM |
| CNC(=O)c1c(-c2ccc(F)cc2)oc2cc(N(C)S(C)(=O)=O)c(-c3ccc4ncn(-c5ccc(F)cn5)c4c3)cc12 [Compound 35] | 35.2 nM | 5.9 nM |
| CNC(=O)c1c(-c2ccc(F)cc2)oc2cc(N(C)S(C)(=O)=O)c(-c3ccc4ncn(-c5cncc(F)c5)c4c3)cc12 [Compound 36] | 36.2 nM | 6.5 nM |
| CNC(=O)c1c(-c2ccc(F)cc2)oc2cc(N(C)S(C)(=O)=O)c(-c3cc(OC)c4nc(C)n(-c5cc(F)cc(F)c5)c4c3)cc12 [Compound 37] | 6.8 nM | 4.3 nM |
| CNC(=O)c1c(-c2ccc(F)cc2)oc2cc(N(C)S(C)(=O)=O)c(-c3cccc4c3ncn4-c3ccccc3)cc12 [Compound 38] | 629 nM | 155 nM |
| CNC(=O)c1c(-c2ccc(F)cc2)oc2cc(N(C)S(C)(=O)=O)c(-c3ncc4ncn(-c5ccc(OC(F)(F)F)cc5)c4n3)cc12 [Compound 39, 2-(4-fluorophenyl)-N-methyl-6-(N-methylmethylsulfonamido)-5-(9-(4-(trifluoromethoxy)phenyl)-9H-purin-2-yl)benzofuran-3-carboxamide] | 1820 nM | 82.4 nM |
| CNC(=O)c1c(-c2ccc(F)cc2)oc2cc(N(C)S(C)(=O)=O)c(-c3ncc4ncn(-c5ccc(F)cc5)c4n3)cc12 [Compound 40] | 338 nM | 20.2 nM |
| CNC(=O)c1c(-c2ccc(F)cc2)oc2cc(N(C)S(C)(=O)=O)c(-c3ncc4ncn(-c5ccc(C(F)(F)F)cc5)c4n3)cc12 [Compound 41] | 119 nM | 6.7 nM |
| CNC(=O)c1c(-c2ccc(F)cc2)oc2cc(N(C)S(C)(=O)=O)c(-c3ncc4ncn(-c5ccc(C#N)cc5)c4n3)cc12 [Compound 42] | 1520 nM | 299 nM |
| CNC(=O)c1c(-c2ccc(F)cc2)oc2cc(N(C)S(C)(=O)=O)c(-c3ccc4ncn(-c5cc(F)cc(F)c5)c4n3)cc12 [Compound 43] | 158 nM | 17.3 nM |
| CNC(=O)c1c(-c2ccc(F)cc2)oc2cc(N(C)S(C)(=O)=O)c(-c3ccc4ncn(-c5ccc(F)cc5)c4n3)cc12 [Compound 44] | 56.5 nM | 7.7 nM |
| CNC(=O)c1c(-c2ccc(F)cc2)oc2cc(N(C)S(C)(=O)=O)c(-c3cc4c(cn3)ncn4-c3cc(F)cc(F)c3)cc12 [Compound 45] | 94.8 nM | 14.4 nM |
| CNC(=O)c1c(-c2ccc(F)cc2)oc2cc(N(C)S(C)(=O)=O)c(-c3cc4c(cn3)ncn4-c3ccc(F)cc3)cc12 [Compound 46] | 74.5 nM | 10.7 nM |
| CNC(=O)c1c(-c2ccc(F)cc2)oc2cc(N(C)S(C)(=O)=O)c(-c3cnc4ccn(-c5ccc(F)cc5)c4c3)cc12 [Compound 47, 2-(4-fluorophenyl)-5-(1-(4-fluorophenyl)-1H-pyrrolo[3,2-b]pyridin-6-yl)-N-methyl-6-(N-methylmethylsulfonamido)benzofuran-3-carboxamide] | 2.1 nM | 1.5 nM |
| CNC(=O)c1c(-c2ccc(F)cc2)oc2cc(N(C)S(C)(=O)=O)c(-c3cnc4ccn(-c5ccc(C(F)(F)F)cc5)c4c3)cc12 [Compound 48] | 2.6 nM | 3.3 nM |
| CNC(=O)c1c(-c2ccc(F)cc2)oc2cc(N(C)S(C)(=O)=O)c(-c3cnc4ccn(-c5ccc(C#N)cc5)c4c3)cc12 [Compound 49] | 8.3 nM | 3.3 nM |
| CNC(=O)c1c(-c2ccc(F)cc2)oc2cc(N(C)S(C)(=O)=O)c(-c3cnc4ccn(-c5ccc(Cl)cc5)c4c3)cc12 [Compound 50] | 3.2 nM | 4.1 nM |
